Peptide text beside a SMILES is read from it.
What was measured:
[1] = tested on: HIV-1 isolate p7300 (low PI); assay: resistant HIV-1 isolates in PBMC, p24 ELISA; assay type: cell-based; settings: GPG 100 μM, 14 days post infection
HIV-1 strain HTLV-IIIB = settings: passaged in serial dilutions for more than six months
BSA = target: T1, BSA (Bos taurus, UniProt P02769); assay: dialysis-based binding assay with 14C-GPG-NH2, BSA; settings: dialysis 2 days at 4° C. against 27.5 μM 14C-GPG-NH2; buffer 1.816
T1 construct: purchased Sigma
Procedure: A dialysis-based binding assay was conducted using a dialysis membrane with a pore size of less than 10 kD. (Slide-A-Lyzer, Pierce). Fifty microliters of a 10 μM stock of the recombinant proteins p24 and gp120 (gifts from the AIDS program, NCIB) and BSA (Sigma) were introduced into separate dialysis membranes and the proteins were dialyzed at 4° C. for 2 days against a 500 ml solution composed of 150 mM NaCl and 50 mM Tris-HCl, pH 7.4 buffer and 27.5 μM of ^14C-GPG-NH2 (Amersham Ltd. UK). Subsequently, ten or five microliter aliquots of the dialyzed p24, gp120, and BSA were removed and mixed with 3 ml of ReadySafe (Beckman) in a scintillation vial. The C^14 was then detected by scintillation counting.

[2] = tested on: HIV-1 isolate p7227 (high AZT); assay: resistant HIV-1 isolates in PBMC, p24 ELISA; assay type: cell-based; settings: GPG 100 μM, 14 days post infection
polio viruses = assay type: cell-based
[3] = tested on: HIV-1 isolate p7163 (inter AZT); assay: resistant HIV-1 isolates in PBMC, p24 ELISA; assay type: cell-based; settings: GPG 100 μM, 14 days post infection
HIV-1 DNA = assay: Southern blot of proviral DNA in HIV-1 infected H-9 cells; assay type: cell-based; settings: 0-2,000 μM; first 24 h
Procedure: To study proviral DNA and viral RNA synthesis, DNA and RNA from HIV-1 infected H-9 cells cultured in the presence of a small peptide were prepared at various time points (0-48 h).

HIV-1 SF-2 virus = assay: combination of GPG-NH2 with AZT or Ritonavir in HUT78 cells, p24; assay type: cell-based
[4] = tested on: HIV-1 isolate p7141 (high PI); assay: resistant HIV-1 isolates in PBMC, p24 ELISA; assay type: cell-based; settings: GPG 100 μM, 14 days post infection
[5] = storage stability of capsules; assay type: physicochemical; settings: Five-hundred milligram capsules; stored at 4° C.
Source text: Compositions of the peptide agents suitable for gastrointestinal administration include, but not limited to, pharmaceutically acceptable powders, pills or liquids for ingestion and suppositories for rectal administration. Due to the most common routes of HIV infection and the ease of use, gastrointestinal administration, particularly oral, is the preferred embodiment of the present invention. […] As previously shown in other virus-host systems, specific antiviral activity of small peptides can be detected in serum after oral administration. (Miller et al., Appl. Microbiol., 16:1489 (1968)). Since small peptides apparently evade degradation by the patient's digestive system, they are ideal for oral administration.

## NCC(=O)N1CCC[C@H]1C(=O)NCC(N)=O [GPG-NH2, glycyl-prolyl-glycine amide] (H-Gly-Pro-Gly-NH2)
[1]
  % reduction: (100%)
  HIV-1 p24: <500 pg/mL
HIV-1 strain HTLV-IIIB
  development of resistance in vitro: without overt signs of development of resistance
gp160
  N- or O-linked glycosylation of the virus protein: no effect
BSA
  radioactive GPG-NH2 associated with BSA: 1.674 μCi/ml
[2]
  % reduction: (100%)
  HIV-1 p24: <500 pg/mL
Polio viruses
  inhibition of polio virus: failed inhibit either influenza or polio viruses
[3]
  % reduction: (100%)
  HIV-1 p24: <500 pg/mL
HIV-1 DNA
  HIV-1 entry and proviral DNA synthesis: no inhibitory effect
HIV-1 SF-2 virus; combination with AZT
  effect on inhibition of HIV-1 replication in the presence of AZT: synergistically
HIV-1 SF-2 virus; combination with Ritonavir
  antiviral effect together with Ritonavir: additive antiviral effect
[4]
  % reduction: (100%)
  HIV-1 p24: <500 pg/mL
[5]
  stability on storage: ≥ 12 months
